Test results reported in ChEMBL document CHEMBL1158219, “Cell-based screen for identification of inhibitors of tubulin polymerization” (J Nat Prod, 1996).
Calls of active or inactive are those of the source. The calls are words filed in the database; no cut-off is given here. *1 amine or outer side, *2 acyl side, *3 side chain or, on linkers, in order; H or OH if unused. Where a SMILES comes first, the peptide text is derived from it. Bridges are numbered along the chain shown (N, C = ends). Roman numbers before positions name the chains, in order. [ ]: non-standard residue; d: D form. Actinocin(9to1) = Cc1c2oc3c(C)ccc(C(=O)[*:1])c3nc-2c(C(=O)[*:2])c(N)c1=O; NMeV = CN[C@H](C(=O)O)C(C)C; Sar = CNCC(=O)O

Experiments:
[1] = test system: C6; assay: Cytotoxicity against rat C6 cells assessed as cell release at 50 ug/mL to 2.5 mg/mL after 5 hrs by MTT assay in absence of db-cAMP; type: functional, cell-based
[2] = Inhibition of tubulin polymerization in rat C6 cells after 4 hrs; type: cell-based
[3] = test system: C6; assay: Cytotoxicity against rat C6 cells after 3 days treated 4 hrs before db-cAMP challenge by MTT assay; type: functional; conditions: read-out: LC50 (the source's name)
[4] = test system: C6; assay: Cytotoxicity against rat C6 cells at 50 ug/mL to 2.5 mg/mL after 3 days treated 4 hrs before db-cAMP challenge by MTT assay; type: functional, cell-based
[5] = test system: C6; assay: Inhibition of tubulin polymerization in rat C6 cells at 50 ug/mL to 2.5 mg/mL after 4 hrs; type: cell-based

SMILES	Activity [1]	EC50 [2] [nM]	CC50 [3] [nM]	Activity [4]	Activity [5]
COc1cc([C@@H]2c3cc4c(cc3[C@@H](O[C@@H]3O[C@@H]5CO[C@@H](C)O[C@H]5[C@H](O)[C@H]3O)[C@H]3COC(=O)[C@H]23)OCO4)cc(OC)c1O [ETOPOSIDE]	inactive	680000	120		
CC[C@]1(O)C[C@@H]2CN(CCc3c([nH]c4ccccc34)[C@@](C(=O)OC)(c3cc4c(cc3OC)N(C)[C@H]3[C@@](O)(C(=O)OC)[C@H](OC(C)=O)[C@]5(CC)C=CCN6CC[C@]43[C@@H]65)C2)C1 [VINBLASTINE]	inactive	8200	66		
COc1cc2c(c(OC)c1OC)-c1ccc(OC)c(=O)cc1[C@@H](NC(C)=O)CC2 [COLCHICINE]	inactive	100	200		
CC[C@]1(O)C[C@H]2CN(CCc3c([nH]c4ccccc34)[C@@](C(=O)OC)(c3cc4c(cc3OC)N(C=O)[C@H]3[C@@](O)(C(=O)OC)[C@H](OC(C)=O)[C@]5(CC)C=CCN6CC[C@]43[C@@H]65)C2)C1 [VINCRISTINE]	inactive	6200	320		
O=C1c2c(O)ccc(O)c2C(=O)c2c(NCCNCCO)ccc(NCCNCCO)c21	inactive			inactive	inactive
O=NN(CCCl)C(=O)NCCCl	inactive			inactive	inactive
CN(N=O)C(=O)N[C@@H](C=O)[C@@H](O)[C@H](O)[C@H](O)CO	inactive			inactive	inactive
CC(=O)O[C@H]1C(=O)[C@@]2(C)[C@H]([C@H](OC(=O)c3ccccc3)[C@]3(O)C[C@H](OC(=O)[C@H](O)[C@@H](NC(=O)c4ccccc4)c4ccccc4)C(C)=C1C3(C)C)[C@]1(OC(C)=O)CO[C@@H]1C[C@@H]2O [PACLITAXEL]			23		
CO[C@@]12[C@H](COC(N)=O)C3=C(C(=O)C(C)=C(N)C3=O)N1C[C@@H]1N[C@@H]12	inactive			inactive	inactive
COc1cccc2c1C(=O)c1c(O)c3c(c(O)c1C2=O)C[C@@](O)(C(C)=O)C[C@@H]3O[C@H]1C[C@H](N)[C@H](O)[C@H](C)O1	inactive			inactive	inactive
CO[C@@H]1[C@@H](OC(N)=O)[C@@H](O)[C@H](Oc2ccc3c(O)c(NC(=O)c4ccc(O)c(CC=C(C)C)c4)c(=O)oc3c2C)OC1(C)C	inactive			inactive	inactive
COc1cccc2c1C(=O)c1c(O)c3c(c(O)c1C2=O)C[C@@](O)(C(=O)CO)C[C@@H]3O[C@H]1C[C@H](N)[C@H](O)[C@H](C)O1	inactive			inactive	inactive
Clc1ccc(C(c2ccccc2Cl)C(Cl)Cl)cc1 (stereo not drawn)	inactive			inactive	inactive
COc1cc([C@@H]2c3cc4c(cc3[C@@H](O[C@@H]3O[C@@H]5CO[C@@H](c6cccs6)O[C@H]5[C@H](O)[C@H]3O)[C@H]3COC(=O)[C@H]23)OCO4)cc(OC)c1O	inactive			inactive	inactive
C=CC[C@@H](CC/C(C)=C/C=C/CC/C=C\[C@@H]1CSC([C@@H]2C[C@@H]2C)=N1)OC [CURACIN A]	inactive	510	11		
C[C@@H]1C[C@@H]([C@H](O)CC2CC(=O)NC(=O)C2)C(=O)[C@@H](C)C1	inactive			inactive	inactive
C=C1[C@@H](C)[C@H]2[C@H](Cc3ccccc3)NC(=O)[C@]23OC(=O)/C=C/[C@H](O)CCC[C@@H](C)C/C=C/[C@H]3[C@@H]1O	inactive			inactive	inactive
N[C@@H](Cc1ccc(N(CCCl)CCCl)cc1)C(=O)O	inactive			inactive	inactive
CCn1cc(C(=O)O)c(=O)c2ccc(C)nc21	inactive			inactive	inactive
Cc1c2oc3c(C)ccc(C(=O)N[C@@H]4C(=O)N[C@H](C(C)C)C(=O)N5CCC[C@H]5C(=O)N(C)CC(=O)N(C)[C@@H](C(C)C)C(=O)O[C@@H]4C)c3nc-2c(C(=O)N[C@@H]2C(=O)N[C@H](C(C)C)C(=O)N3CCC[C@H]3C(=O)N(C)CC(=O)N(C)[C@@H](C(C)C)C(=O)O[C@@H]2C)c(N)c1=O (I: T[dV]P[Sar][NMeV] / II: T[dV]P[Sar][NMeV]; ester I:1-I:C, II:1-II:C; linker I:N-II:N via Actinocin(9to1))	inactive			inactive	inactive
